SMILES strings stand for the structures.

`C[C@@H](n1cnn(-c2ccc(OCC(F)(F)F)cc2)c1=O)[C@@]1(c2ccc(F)cc2F)CO1` gave a melting point of 118 to 119 °C.
In the case of `Nc1ccccc1C(=O)NCCN1CCC(n2c(=O)[nH]c3cc(Cl)ccc32)CC1` it was 227 °C; in that of `CCOC(=O)CC1=CC2C(CCC3(C)C(O)CCC23)c2ccc(O)cc21` (stereo not drawn), 178 °C; in that of `CCSc1cnc(OCCOc2ncnc(NS(=O)(=O)c3ccc(C(C)(C)C)cc3)c2-c2ccc(C)cc2)nc1`, 177 to 178 °C.
The value for `NNc1cc2c(nn1)CCN(C(=O)CCCc1ccccc1)C2` was 203 to 205 °C; that for `Fc1cc2c(Nc3ccc(OCc4ccccn4)c(Cl)c3)ncnc2cn1` was 216 to 219 °C; that for `COC(=O)c1cc(C(=O)OC)c2c(Cl)cc(Cl)cc2n1` was 116 to 118 °C.
The value for `O=c1cc(Cc2c[nH]c3ccccc23)[nH]n1C1CCCCC1` was 192 to 194 °C; that for `O=C(O)COc1cc(Cl)ccc1C(=O)NCc1ccc(Br)cc1` was 172 to 173 °C.
With `Cc1ccc(S(=O)(=O)NC2(S(=O)(=O)n3ccc(/C=C/C(=O)NO)c3)C=CC(c3ccccc3)=CC2)cc1` (stereo not drawn), the melting point was 119 to 126 °C.
`O=C(c1ccc(Cl)cc1)c1cc([N+](=O)[O-])ccc1N1CCC(O)CC1` returned a melting point of 142 °C.
The value for `Cc1cc(Cn2nnc(C(N)=O)c2N)cc(C)c1C(=O)c1ccc(Cl)cc1` was 208 to 209 °C.
The value for `COc1cccc(Oc2nccc(-c3c(-c4ccc(F)cc4)ncn3C3CCNCC3)n2)c1` was 117 to 118 °C; that for `CCOP(=O)(Cc1ccc(NC(=O)[C@H]2Cc3cc4c(cc3C(=O)[C@H](C)S2)OCO4)cc1)OCC` was 181 to 182 °C.
In turn, `CC(C)c1cc(C(C)C)c2nc[nH]c(=O)c2c1` returned a melting point of 164 to 165 °C.
In the case of `CC(=O)OC1CSC(Oc2cccc(-c3cn(C)nc3C(F)(F)F)c2)C(OC(C)=O)C1OC(C)=O` (stereo not drawn) it was 131 to 133 °C.
`Cc1nc2ccccc2n2cnc(-c3nc(C4CC4)no3)c12`: the melting point fell in the range of 188 to 189 °C.
The value for `Cc1ccc(-c2c(C(=O)O)n(CCCBr)c(=O)c3ncccc23)cc1` was 194 to 196 °C.
Turning to `Cc1cccc(N(C)C(=O)c2cc(=O)n(C)c3ccc(C(O)(c4ccc(Cl)cc4)c4cncn4C)cc23)c1` (stereo not drawn), the melting point amounted to 185 °C.
In the case of `CCCC(=O)c1cc2c(=O)cc(C(=O)O)[nH]c2cc1C` it was 255 to 258 °C; in that of `COc1ccc(CCNC(=O)C2CCCCC2)cc1OC`, 110 to 111 °C; in that of `CC(=O)OCCCc1c(C)[nH]c(C(=O)OC(C)(C)C)c1C`, 73 °C.
Turning to `CCN1CCN(c2cc3c(cc2F)c(=O)c(C(=O)O)cn3CC)CC1C` (stereo not drawn), the melting point lay within 203 to 205 °C.
In the case of `Fc1ccccc1NC(=S)c1ccccn1` it was 94 to 97 °C; in that of `Oc1ccccc1-c1cnc2cnc(-c3ccccc3O)nc2c1`, 239 to 240 °C; in that of `NC(=O)CNC(=O)c1ccccc1I`, 183 to 185 °C.
The value for `O=C(O)Cc1cccc2c1N=C(c1ccccc1)CC2=O` was 238 to 240 °C; that for `COCc1c(C(=O)OC(CO)CO)ncc2[nH]c3ccc(OCc4ccccc4)cc3c12` was 190 to 192 °C; that for `O=C(Nc1ccc(OCCN2CCOCC2)c2ccccc12)c1cccc(-n2cccc2)c1` was 142 to 143 °C.
The value for `CS(=O)(=O)Nc1cc([N+](=O)[O-])ccc1Oc1ccccc1` was 112 to 114 °C.
In turn, `Cc1cc(C)c(NC(=O)N(O)C(C)C)cc1C` gave a melting point of 176 to 177 °C.
In the case of `COc1ccc(C(OC(C)=O)c2cc(OCc3ccccc3)ccc2OC)nc1` (stereo not drawn) it was 105 to 110 °C; in that of `CCOc1ccc(NC(=O)NCCCOc2cccc(CN3CCCCC3)c2)cc1`, 109 to 111 °C.
In the case of `CC(NC1(C(=O)O)CCCC1)C(=O)N1CCCC1C(=O)O` (stereo not drawn) it was 142 to 145 °C; in that of `Cc1ccc2nc(S)oc2c1`, 209 °C.
The compound `CC(=O)N(CCCC(=O)O)C(c1ccccc1)c1ccccc1` gave a melting point of 173 to 174 °C.
`Cc1cn(Nc2ccncc2)c2ccc(OCc3ccccc3)cc12` returned a melting point of 168 to 170 °C.
In the case of `CCOC(=O)c1ccc(OCC2CCCCC2)c([N+](=O)[O-])c1` it was 79 to 80 °C.
Compound `CC(C)(C)CNc1nc(Cl)cc(NC(C)(C)C)n1` came in with a melting point of 115 to 119 °C.
In the case of `O=C(NCc1ccc(F)cc1)c1nc2n(c(=O)c1O)CCN2Cc1ccccc1`, the melting point was 225 °C.
Regarding `COc1c(F)c(F)c(N)c2c(=O)c(C(=O)O)cn(C3CC3)c12`, the melting point lay within 291 to 292 °C.
The value for `C=CC(=O)OCCCCCCOc1ccc(C(=O)OCCOCC2(c3ccccc3)C=CC=CC2C=Cc2ccc(OCCCCCC)cc2)cc1` (stereo not drawn) was 87 °C; that for `COc1nc2cc(Cl)ccc2nc1Cl` was 92 to 95 °C; that for `CC(=O)Nc1c(OC(C)=O)cc(C(=O)O)cc1[N+](=O)[O-]` was 196 to 201 °C.
In the case of `O=C(O)c1cccc2nc3ccc4[nH]ncc4c3nc12` it was 305 to 310 °C; in that of `CCN(C(=O)C(C)O)c1cn(-c2cccnc2)nc1Cl` (stereo not drawn), 137 to 138 °C; in that of `CSc1sc2ccccc2c1C=O`, 50 to 53 °C.
The value for `N#CC1c2ccc(Br)cc2CCC1c1ccc(F)cc1` (stereo not drawn) was 146 °C; that for `O=C(Nc1cc(S(=O)(=O)NC(CO)CO)sc1Cl)c1cnn2c(C(F)(F)F)cc(-c3ccc(C(F)(F)F)cc3)nc12` was 225 °C.
Turning to `O=C(NCCCCCCOC(=O)N1CCC(OC(=O)N2CCCCC2)CC1)Oc1ccc(Oc2ccccc2)cc1`, the melting point lay in the range of 56 to 61 °C.
As to `O=C1CCCc2oc(-c3ccccc3)cc21`, the melting point lay within 132 to 134 °C.
In the case of `CCOC(=O)Cc1sc(Sc2nccc(C)c2C(=O)OCC)nc1C` it was 85 to 87 °C; in that of `CCCCCCCCOc1ccc(-c2cc(F)cc(F)c2F)cc1`, 31 °C.
As to `COC(C)CC(=O)NC1CCC(CCN2CCN(c3nccc4c3OCC4)CC2)CC1` (racemic), the melting point turned out to be 168 °C.
`O=c1[nH]c2cc(Cl)c(F)c([N+](=O)[O-])c2[nH]c1=O` returned a melting point of 308 to 310 °C.
The value for `O=C1COc2ccccc2CN1Cc1ccccc1` was 95 to 97 °C; that for `Cc1ccc([N+](=O)[O-])c(C#N)c1` was 90 to 91 °C; that for `CCc1cc(C)c(Br)c(CC)c1-c1c(OC(=O)OC)c(C)nn(C)c1=O` was 113 to 115 °C.
In the case of `CC(C)C(=O)NC[C@@H]1CN2C(=O)C[C@H]2O1` (racemic) it was 76 to 77 °C.
The value for `CN=C(O)c1c(Sc2ccc(OC)cc2)c(Sc2ccc(OC)cc2)c(Sc2ccc(OC)cc2)c(Sc2ccc(OC)cc2)c1C(=O)O` was 168 to 170 °C.
On to `C[C@H](CN(C(=O)C1C2CCC1CC2)c1ccccn1)N1CCN(c2cccc3[nH]ccc23)CC1` (stereo partly drawn), for which the melting point fell in the range of 176 to 179 °C.
In the case of `CCOC(=O)N1CCc2nc3c(Cl)cccc3c(C)c2CC1` it was 169 °C; in that of `O=c1c(-c2ccccc2)c(-c2ccccc2)oc2cc(OCC(O)CNC3CC3)ccc12` (stereo not drawn), 135 to 137 °C; in that of `COC(=O)c1ccc(OC)c(NC(=N)c2ccc(F)cc2)c1`, 120 °C.
The value for `C=C1CCc2sccc2C1=O` was 47 to 49 °C; that for `O=C(Oc1ccccc1OC(=O)c1cc(O)c(O)c(O)c1)c1cc(O)c(O)c(O)c1` was 210 °C; that for `Cc1c2c(c(C)c3c1NCC3)OC(C)(C)C2` was 105 to 107 °C.
As to `CC(C)C(=O)c1nccnc1SCc1ccco1`, the melting point is 57 to 58 °C.
For `NS(=O)(=O)c1ccc(-c2cc(F)c(F)cc2-c2ccc(F)c(Cl)c2)cc1`, the melting point is 162 to 163 °C.
The value for `CCOc1ccc(C(=O)Nc2ccccc2)cc1N` was 189 to 190 °C; that for `[N-]=[N+]=NCCO/N=C(\C(=O)O)c1csc(N)n1` was 180 °C; that for `O=C(c1ccc(F)cc1)C1CCN(CCN2CNc3ccccc3C2=O)CC1` was 203 °C.
In the case of `CSc1ncnn1C[C@]1(c2ccc(F)cc2)O[C@@H]1c1cccc(Cl)c1F` (relative stereo) it was 88 °C.
In the case of `CC(=O)OCC12CCC(=O)C=C1CCC1C2CCC2(C)C(O)CCC12` (stereo not drawn) it was 125 to 127 °C; in that of `CS(=O)(=O)c1ccc(-c2nc(-c3ccc(F)cc3)c(-c3ccncc3)[nH]2)cc1`, 148 to 149 °C.
In turn, `O=C1CCC(c2ccccc2)(c2ccccc2)C2CN(C(Cc3ccccc3)=NCCc3ccccc3)CC12` (stereo not drawn) registered a melting point of 188 °C.
In the case of `Cc1nnc(C)n1-c1ccc(C#N)cc1` it was greater than 230 °C; in that of `CN1CC(N2CCc3ccccc3C2)ON=C1CC(c1ccccc1)c1ccccc1` (stereo not drawn), 163 °C.
In turn, `COC(=O)c1ccc(C#CC2(O)CN3CCC2CC3)nc1` (stereo not drawn) showed a melting point of 180 to 182 °C.
The value for `C#Cc1cnn2c(C(F)(F)F)cc(-c3ccc(Cl)c(C)c3)nc12` was 166 °C; that for `COc1ccc(Cl)cc1C(=O)NC1Cc2cc(S(=O)(=O)NC(=S)NC(C)C)c(OC)cc2OC1(C)C` (stereo not drawn) was 201 to 202 °C.
For the compound `COc1ccc(CNc2nc(NCc3ccc(OC)cc3)c3[nH]nc(C(C)C)c3n2)cc1`, the melting point lay within 60 to 85 °C.
In turn, `COC(=O)c1cc(N=NN(C)C)cs1` yielded a melting point of 90 to 92 °C.
For `COc1ccc(N2CCN(c3c(C)c(C)c4c(c3C)C(CCc3ccccc3)C(C)(C)O4)CC2)cc1` (stereo not drawn), the melting point was 92 to 94 °C.
`Cc1nc2cc3c(cc2c(=O)[nH]1)OCCO3` came in with a melting point of 275 °C.
The value for `O=C(O)CN(CC(=O)c1ccccc1)c1c(C(=O)O)[nH]c2cc(Cl)cc(Cl)c12` was 235 to 237 °C.
The compound `COC(=O)CCS(=O)(=O)c1ccc(NC(C)=O)cc1` had a melting point of 156 to 158 °C.
The value for `Cc1cc(C)c(C(C#N)C=O)c(C)c1` (stereo not drawn) was 120 to 122 °C.

For the origin of these results see a melting point compilation (Tetko et al.; mined from patent text by program, amines drawn as free bases though some values may be those of a salt).
